For one experiment, the system named is Sal. typhimurium. As to the kind of experiment: SPOT peptide library screen (resazurin fluorescence). Format: cell-based, Salmonella enterica serovar Typhimurium. Details: unit not given here. The note with it: 75% reduction of fluorescence vs untreated controls; active IC75≤0.25, semi-active 0.25<IC75≤0.50, inactive IC75>0.5. The source says:
(§1) The peptides in the created peptide library were synthesized based on the SPOT technique and pure peptides (≥95% purity) were synthesized on resin using solid phase Fmoc peptide chemistry.[16] The 135 peptides in the peptide library were screened for antimicrobial activity using both luminescent (Pseudomonas aeruginosa strain H1001)[34] and non-luminescent (epidemic methicillin resistant S. aureus EMRSA-15, Sal. typhimurium and E. coli K12) bacterial strains. Activity against non-luminescent bacteria strains was assessed by fluorescence readings (excitation/emission spectra of 560/590 nm) after the addition of resazurin dye (100 µm final concentration). The results from the screen were analysed using the MATLAB extension Gait-CAD as previously described.[35] Concentration values with a 75% reduction of luminescence or fluorescence (IC75) in relation to untreated controls were computed.
In general terms: Resazurin is reduced to fluorescent resorufin, in cell work by metabolically active cells.

Experiment [1] deals with E. coli K12. The description is as above. The format is cell-based, Escherichia coli. Details: unit not given here. The note with it: 75% reduction of fluorescence vs untreated controls; active IC75≤0.25, semi-active 0.25<IC75≤0.50, inactive IC75>0.5.
Source text: as §1

Experiment [2] deals with S. aureus MRSA ATCC 33591. As to the kind of experiment: Neutropenic mouse MRSA thigh infection model. The format is in vivo, Staphylococcus aureus. The note with it: neutropenic male ICR mice; 10 mg/kg IV once or twice (2 h or 2 and 8 h post infection). As to the method:
In the thigh infection model, using neutropenic mice,[25] groups of five male ICR mice weighing 22 ± 2 g were inoculated intramuscularly (IM) with S. aureus MRSA, ATCC 33591 (1.57 × 10^5 CFU/mouse (0.1 ml/thigh)) in the right thigh. Lynronne-1, Lynronne-2 and Lynronne-3 at 10 mg/kg were intravenously (IV) administered once 2 h post infection or twice 2 and 8 h post-infection. The reference substance, vancomycin, was also intravenously injected 2 and 8 h post-infection at 10 and 30 mg/kg. Test animals were sacrificed 26 h after inoculation and the infected thighs were excised and the bacterial burden (CFU/gram) was determined.

For the next experiment, the system named is EMRSA-15. As to the kind of experiment: SPOT peptide library screen (resazurin fluorescence). The format is cell-based, Staphylococcus aureus. Details: unit not given here. The note with it: 75% reduction of fluorescence vs untreated controls; active IC75≤0.25, semi-active 0.25<IC75≤0.50, inactive IC75>0.5.
Source text: as §1

The subject of a further experiment is MRSA ATCC 33591. As to the kind of experiment: Anti-biofilm activity, 96-well crystal violet model. Format: cell-based, Staphylococcus aureus. The note with it: 0.25× MIC (data not shown). As to the method:
The effectiveness of Lynronne-1, Lynronne-2, and Lynronne-3 to prevent (a) biofilm attachment and (b) disrupt established biofilms was measured using a 96-well biofilm model.[50] […] The biofilms were washed in PBS to remove planktonic cells, fixed with methanol, stained with 0.5% (w/v) crystal violet and re-solubilized with 33% (v/v) acetic acid. The optical density of biofilms was measured at 570 nm.

For a further experiment, the system named is P. aeruginosa H1001. As to the kind of experiment: SPOT peptide library screen (luminescence). The format is cell-based, Pseudomonas aeruginosa. Details: unit not given here. The note with it: 75% reduction of luminescence vs untreated controls; active IC75≤0.25, semi-active 0.25<IC75≤0.50, inactive IC75>0.5.
Source text: as §1

The subject of experiment [3] is E. coli K12. As to the kind of experiment: MIC, broth microdilution. Format: cell-based, Escherichia coli. The note with it: strain K12; cation adjusted MHB, 18–24 h. As to the method: Peptides dissolved in sterile distilled water and comparator antibiotics dissolved in the appropriate solvents[38] were added to sterile U-bottom polypropylene 96-well microplates at desired concentrations.
On the technique in general: In broth dilution the organism is exposed to a series of concentrations in liquid medium.

The next experiment concerns MRSA USA300 cells. As to the kind of experiment: Transmission electron microscopy of treated cells. The format is cell-based, Staphylococcus aureus. The note with it: 3× MIC for 1 h. The text has this:
Effects of AMPs on bacterial cell morphology was investigated using transmission electron microscopy as described by Huws et al.[49] […] Cells were post-fixed with 1% osmium tetroxide (w/v), stained with 2% (w/v) uranyl acetate and Reynold’s lead citrate and observed using a JEOL JEM1010 transmission electron microscope (JEOL Ltd, Tokyo, Japan) at 80 kV.

Another experiment has as its system MRSA strains. The note with it: sub-MIC levels, 25 days, daily passage. As to the method:
To evaluate if populations of AMP-resistant bacteria could be selected, cultures were continuously exposed to Lynronne-1, Lynronne-2 and Lynronne-3 for a duration of 25 days, as previously described.[40] Briefly, broth microdilution susceptibility testing was performed using a standard doubling-dilution series of Lynronne-1, Lynronne-2 and Lynronne-3 concentrations on day 1.

The nature of experiment [4]: Peptide-lipid interaction, lipid monolayer (Langmuir balance). The format is binding, Staphylococcus aureus. The note with it: initial surface pressure 30 ± 0.5 mN/m; compared to Lynronne-2. How it is done: Membrane permeabilsation was evaluated using propidium iodide assay as previously explained,[43] with CTAB as positive control. Peptide–lipid interaction was measured using reconstituted lipid monolayer.[44] Total lipid extract from overnight liquid cultures of MRSA USA300 was obtained by Folch extraction, resuspended in chloroform and stored at −20 °C under nitrogen conditions. Pure bacterial and eukaryotic lipids, POPG, cardiolipin, LTA, POPE and POPC (Avanti Polar Lipid USA) were reconstituted in chloroform at 1 mg/ml and stored at −20 °C under nitrogen. […] The variation of the surface pressure caused by peptide injection was then continuously monitored using a fully automated microtensiometer (µTROUGH SX, Kibron Inc., Helsinki, Finland) until reaching equilibrium (maximal surface pressure increase usually obtained after 15–25 min). Critical pressure of insertion of each peptide in the different lipids was also determined by changing the initial pressure of lipid monolayer (from 10 and 30 mN/m) and measuring the variation of pressure caused by the injection of peptide (at 1 µg/ml final concentration). All experiments were carried out in a controlled atmosphere at 20 °C ± 1 °C and data were analyzed using the Filmware 2.5 program (Kibron Inc., Helsinki, Finland). […]

Another experiment has as its system A. baumanii. As to the kind of experiment: microbe, parasite or virus in culture. The gist of the method:
(§2)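 First, peptides went into sterile distilled water and comparators into appropriate solvents. Next, each was added to the wells at the desired concentrations.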

In the next experiment the test system is K. pneumoniae. As to the kind of experiment: microbe, parasite or virus in culture. The note with it: cation adjusted MHB, 18–24 h. The gist of the method:
as §2

Where two headings read alike, the source gives them in different places. Ends that are not written are not given here.

For the substance HLRRINKLLTRIGLYRHAFG-NH2 [Lynronne-2], the “IC75 values indicating activity classes, Sal. typhimurium” value in the experiment with Sal. typhimurium is recorded as 0.09. Besides, in the experiment on E. coli K12 [1], the “IC75 values indicating activity classes, E. coli” value turned out to be 0.09. For the same substance, the “Antimicrobial effect compared to the vehicle/control group (0.9% NaCl)” value in [2] was “not associated with any significant antimicrobial effects”. In addition, the “IC75 values indicating activity classes, EMRSA-15” value with EMRSA-15 is given as 0.29. Besides, the Biofilm attachment result with MRSA ATCC 33591 is “effective”. For the same substance, in the experiment on P. aeruginosa H1001, the “IC75 values indicating activity classes, P. aeruginosa H1001” value is recorded as 0.14. The substance further registered an MIC against E. coli K12 [3] of 64 µg/mL. In the experiment on MRSA USA300 cells, the “Changes in cell morphology (TEM)” value is “very little morphology changes”. For the same substance, the “Resistance acquisition during serial passage” value with MRSA strains is reported as “failed to produce mutants that were resistant”.
In the case of LPRRNRWSKIWKKVVTVFS-NH2 [Lynronne-1], the “IC75 values indicating activity classes, Sal. typhimurium” value in the experiment on Sal. typhimurium stood at 0.24. The “IC75 values indicating activity classes, E. coli” value in the experiment with E. coli K12 [1] is listed as 0.06. Further, in [2], the “Antimicrobial effect compared to the vehicle/control group (0.9% NaCl)” value is “not associated with any significant antimicrobial effects”. Also, the “IC75 values indicating activity classes, EMRSA-15” value in the experiment with EMRSA-15 was found to be 0.38. For the same substance, in the experiment on P. aeruginosa H1001, the “IC75 values indicating activity classes, P. aeruginosa H1001” value worked out at 0.14. Besides, the MIC is 32 µg/mL against E. coli K12 [3]; 4 µg/mL in the experiment on A. baumanii; 16 µg/mL in the experiment on K. pneumoniae (strain ATCC 700603, SHV-18); 16 µg/mL against K. pneumoniae (strain NCTC 13442, OXA-48). Further, the “Insertion ability into MRSA lipid extract monolayer” value in experiment [4] is on record as “higher insertion ability”. In addition, the “Resistance acquisition during serial passage” value with MRSA strains was “failed to produce mutants that were resistant”.
With NRFTARFRRTPWRLCLQFRQ-NH2 [Lynronne-3], in the experiment on Sal. typhimurium, the “IC75 values indicating activity classes, Sal. typhimurium” value came to 0.41. For the same substance, the “IC75 values indicating activity classes, E. coli” value with E. coli K12 [1] worked out at 0.16. Moreover, the “Antimicrobial effect compared to the vehicle/control group (0.9% NaCl)” value in [2] was “not associated with any significant antimicrobial effects”. Moreover, in the experiment with EMRSA-15, the “IC75 values indicating activity classes, EMRSA-15” value worked out at 0.65. In addition, in the experiment with P. aeruginosa H1001, the “IC75 values indicating activity classes, P. aeruginosa H1001” value was 0.54. The MIC against E. coli K12 [3] was determined as 64 µg/mL; with A. baumanii (strain 1560739339, OXA-23, cation adjusted MHB, 18–24 h) it was 32 µg/mL; against K. pneumoniae (strain ATCC 700603, SHV-18), 32 µg/mL; with K. pneumoniae (strain NCTC 13442, OXA-48), 32 µg/mL; against K. pneumoniae (strain Q14-0095, KPC), 32 µg/mL. In addition, in experiment [4], the “Insertion ability into MRSA lipid extract monolayer” value is “higher insertion ability”. Besides, the “Resistance acquisition during serial passage” value in the experiment with MRSA strains was “failed to produce mutants that were resistant”.

Source of the values: PMC5711939, “The rumen microbiome: an underexplored resource for novel antimicrobial discovery” (NPJ Biofilms and Microbiomes, 2017).
